Data on six compounds can be found in patent US9999601B2, “Composition and method for inhibition of nerve transmission” (NEUROQUEST INC., priority 2007, dated 2018).

Assay [1] addresses delayed rectifier current (Ikv), specifically Ikv 1.5 subtype (Homo sapiens, UniProt P22460). Kind of assay: Whole cell patch clamp recordings (K+ channels). The class given is cell-based. To be noted: for inhibition of delayed rectifying potassium channels (in words): 10 ppm (10 mcmol or 10 ppm); for percent inhibition of the delayed rectifier potassium current: at a concentration of Geranium oil that gave 40% inhibition; for inhibition of delayed rectifying potassium channels, comparison in words: concentration not given. How it is done: Whole cell patch clamp recordings (Axopatch 200B) were made using borosilicate patch pipettes of resistance 3-8 MΩ with an intracellular solution utilizing potassium chloride as the current carrier. Current clamp recording were conducted holding the membrane potential at −60 mV to characterize the firing property of the cells. Voltage clamp was performed to investigate the delayed rectifier current (Ikv), specifically Ikv 1.5 subtype. Statistical significance was assessed using ANOVA followed by Duncan's multiple-range test with P<0.05 taken as indicating significance. […] A synthetic blend of geranium oil containing proportions of geraniol and citronellol similar to natural geranium oil, but with other components removed, was compared to the following ratios of geraniol:citronellol; 2:8, 3:7, 4:6 and geranium oil. The synthetic blend of geranium oil gave a 50% inhibition of the delayed rectifying potassium channel current compared to a 40% inhibition for natural geranium oil.
On the technique in general: In patch-clamp work, channel activity is measured electrically.

The test system of assay [2] is mouse hippocampal brain slice neurons (cortical neuron). Kind of assay: Patch clamp electrophysiological studies of mouse hippocampal slices. To be noted: for inhibition of nerve transmission (in words): animal cortical nerve cells and dorsal root ganglion cells; for membrane currents, current-voltage relation (in words): bath-applied, 10 mV steps from −110 to −20 mV, FIG. 1, FIG. 2A-C. Type of assay: cell-based. The protocol: Studies were conducted on mouse hippocampal brain slice preparations. In terms of the slice preparations, […] coronal brain slices were prepared from animals housed in a 12 hour light (ZT 0-12):12 hour dark (ZT 12-24) environment. Animals were anesthetized with isoflurane, decapitated, the brain rapidly removed and placed in ice cold, oxygenated (95% 02:5% C02), bicarbonate-buffered artificial cerebral spinal fluid (ACSF). A 1 cm^2 block of brain tissue containing the hippocampi was glued to a cutting surface and coronal slices were prepared using a Leica VT1000S microtome (Leica Microsystems). All slices were left to equilibrate for approximately one hour prior to the transfer to a recording chamber. Once transferred to the chamber, slices were continuously superfused with oxygenated ACSF at a rate of 3 ml/min @30° C. and recordings are generally made for the next 6-12 hours. Patch microelectrodes (5-8MΩ) made from borosilicate glass (Garner Glass Co.) and filled with K^+based internal patch solution composed of: (in mM) 120 K-acetate, 40 HEPES, 10 EGTA, 6 MgCl2, nystatin (450 μg/ml) or gramicidin B (5 μg/ml) and pluronic acid F127.
The perforated patch recording technique and will be used (Korn & Horn, 1989) and viable Hippocampal neurons were visually targeted using Infrared Differential Interference Contrast (IR-DIC) microscopy using a Leica DM LFSA scope. […] Recordings were made from 3 different patch rigs equipped with either […] patch clamp amplifiers interfaced via a Digidata 1322A to a PC computer or on, in terms of the studies performed on dissociated DRG neurons, a Zeiss Axoscop 200 inverted microscope equipped with an Axopatch 200B/Digidata 1322A using Pclamp 9.0 and Axoscope 9 software.
Test compounds were bath-applied by superfusion to examine for changes in excitability and/or attenuation of ion channels and the effects of compounds on evoked synaptic responses. Stimulating electrodes (concentric or bipolar) were placed within the slices and in accordance with the well known fiber tract pathways of passage for the
Superimposed responses to a series of 10 mV steps (250 ms) ranged from −110 to −20 mV are shown, (A) in control condition, (B) in presence of geraniol, and (C) after washout of the drug.
Typical response of a cortical neuron following a depolarizing current pulse of 0.4 nA is shown in FIGS. 2D, 2E and 2F, (D) in control condition, (E) in presence of geraniol, and (F) after recovery.
Mean current-voltage plots for 6 cortical neurons are plotted in FIG. 1.
Samples 1, 2 and 6 are examples of naturally-derived geranium oils; sample 3 is the synthetic composition as set out in Table 1, sample 4 is pure geraniol, sample 5 is pure citronellol and sample 4+5 is 50:50 (by volume) combination of geraniol and citronellol. Net current represents the difference between current measured in control condition and in presence of tested compound, in response to the same voltage step.

In the next assay the test system is post herpetic neuralgia. In words: Case study, post herpetic neuralgia, topical pure geraniol. The class given is in vivo, human. The note with it: over 30 minutes after topical application; one subject. From the text: person, Ht 68 inches, Weight 162 lb. BMI 24.7. History of shingles 4 years prior to study with residual pain (post herpetic neuralgia). The subject tried Neurontin™ (Pfizer, U.S.) for 1 week with only some help and quit 3-4 years prior to this study.
They had moderate pain that made it hard to concentrate on things other than the pain. […] They could sleep, but had to keep changing positions to do so. They described the post-herpetic neuralgia as the worst thing to have happened to […]. The subject's pain decreased by 78% with pure geraniol over the course of 30 minutes after topical application as measured on a standard visual analog scale.

The test system of another assay is post-herpetic neuralgia. In words: Human screening of synthetic geranium oil and geraniol in neuropathic pain (post-herpetic neuralgia). The class given is in vivo. To be noted: topical pure geraniol, human neuropathic pain sufferers. How it is done:
A synthetic blend of geranium oil (Table 1) was also tested in a panel of human neuropathic pain sufferers known to respond to naturally derived geranium oil. The geranium oil was topically applied in therapeutically effective amounts to areas of the human body affected with symptoms of neuropathic pain. Dosage amounts depended on the size of the patient's affected areas. […] Once administered, a typical positive response is a significant reduction in pain, often in minutes. A significant number of patients in the panel of neuropathic pain sufferers preferred the pain relieving effects of the synthetic blend of geranium oil, with known purified constituents, over the natural geranium oil.
Since natural geranium oil relieves neuropathic pain and inhibits the delayed rectifying potassium channel, and since synthetic geranium oil, geraniol, and citronellol all inhibit the delayed rectifying potassium channel, synthetic geranium oil and geraniol were tested on patients with post-herpetic neuralgia. A synthetic blend of geranium oil was tested in patients with post-herpetic neuralgia that were positive responders to natural geranium oil. […] Pure geraniol was then tested in these subjects.

“Also recorded” adds a separate entry of the source.

delayed rectifier current (Ikv), specifically Ikv 1.5 subtype, sequence (P22460 whole entry): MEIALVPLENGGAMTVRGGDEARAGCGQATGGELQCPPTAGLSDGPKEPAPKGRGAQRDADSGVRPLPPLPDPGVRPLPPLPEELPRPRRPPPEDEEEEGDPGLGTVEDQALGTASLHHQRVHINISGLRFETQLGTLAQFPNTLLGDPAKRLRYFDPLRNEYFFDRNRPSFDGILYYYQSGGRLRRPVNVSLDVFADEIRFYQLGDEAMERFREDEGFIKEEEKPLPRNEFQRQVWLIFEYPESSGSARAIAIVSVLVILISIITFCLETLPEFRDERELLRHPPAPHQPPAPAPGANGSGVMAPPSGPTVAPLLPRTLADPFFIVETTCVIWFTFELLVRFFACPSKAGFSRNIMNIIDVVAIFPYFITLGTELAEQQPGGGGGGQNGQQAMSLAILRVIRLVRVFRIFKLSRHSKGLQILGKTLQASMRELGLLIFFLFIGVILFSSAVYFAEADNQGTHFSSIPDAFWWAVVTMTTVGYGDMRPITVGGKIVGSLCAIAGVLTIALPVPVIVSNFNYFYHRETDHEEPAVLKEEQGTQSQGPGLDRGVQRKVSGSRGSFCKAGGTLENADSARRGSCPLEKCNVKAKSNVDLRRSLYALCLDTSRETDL

Consider `CC(C)=CC1CC(C)CCO1` (centres unmarked) [rose oxide, Rose Oxide], for which, in assay [1], the “inhibition of delayed rectifying potassium channels (in words)” value was “positive” and the “percent inhibition of the delayed rectifier potassium current” value (“percent inhibition” for short) was 14%.

With `CC(C)=CCC/C(C)=C/CO` [geraniol, 2,6-Octadien-1-ol, 3,7-dimethyl-, (2E)-], in assay [2], the “inhibition of nerve transmission (in words)” value is on record as “effectively inhibit nerve transmission” and the “membrane currents, current-voltage relation (in words)” value (“membrane currents” for short) was “reduction in the membrane current amplitude; also recorded: reduction of membrane currents”. In addition, in assay [2] (listed as geraniol (test compound #4)), the “membrane currents” value is recorded as “reduction of membrane currents”. Further, the “membrane currents” value in assay [2] (listed as sample #4 (Geraniol)) was “reduction of membrane currents”. Also, the “net current reduction, rank among tested samples” value in assay [2] (most negative voltage step (−110 mV), FIG. 3) is given as “greatest inhibition”. For the same compound, the “action potentials (in words)” value in assay [2] (voltage steps or depolarizing current pulse of 0.4 nA, FIG. 2) is listed as “inhibition of action potential”. For the same compound, in the assay with post herpetic neuralgia, the “decrease of pain on visual analog scale” value is reported as 78%. Further, the “neuropathic pain relief (in words)” value in the assay on post-herpetic neuralgia was “almost immediate pain relief; also recorded: greatest effect on neuropathic pain relief”. Besides, in assay [1], the “inhibition of delayed rectifying potassium channels (in words)” value is listed as “positive”; the “percent inhibition” value stood at 26%; the “inhibition of delayed rectifying potassium channels, comparison in words” value was “highest amount of inhibition; also recorded: highest activity”.

Consider `C=C(C)C1CC=C(C)C(=O)C1` (centres unmarked) [carvone, Carvone], for which, in assay [1], the “inhibition of delayed rectifying potassium channels (in words)” value is given as “positive” and the “percent inhibition” value is recorded as 22%.

Regarding `CC(C)[C@@H]1CC[C@@H](C)CC1=O` [menthone, Menthone], in assay [1], the “inhibition of delayed rectifying potassium channels (in words)” value is listed as “positive” and the “percent inhibition” value is reported as 22%.

For the compound `C=CC(C)(O)CCC=C(C)C` (centres unmarked) [linalool, Linalool], in assay [1], the “inhibition of delayed rectifying potassium channels (in words)” value is recorded as “positive” and the “percent inhibition” value stood at 18%.

In the case of `CC(C)=CCCC(C)CCO` (centres unmarked) [citronellol, 3,7-dimethyloct-6-en-1-ol], the “inhibition of nerve transmission (in words)” value in assay [2] was “effectively inhibit nerve transmission”. In assay [1], the “inhibition of delayed rectifying potassium channels (in words)” value is recorded as “positive”; the “percent inhibition” value is reported as 27%; the “inhibition of delayed rectifying potassium channels, comparison in words” value is listed as “highest amount of inhibition; also recorded: highest activity”.
